Measurements as given in US20240024240A1 (priority 2020, published 2024).

Experiment: Sonication of magnesium oxide nanopowder with different ligands (functionalization, dispersion)
Assay type: physicochemical
Procedure: Different capping ligands were selected for the functionalization of magnesium oxide nanoparticles (see FIG. 5). This method is applicable to ligands whose anchoring groups forms stable magnesium complexes such as catecholates, salicylates, phosphates and phosphonates. Even if the affinity of each individual group for the particle surface is low, the multiplicity of anchoring groups provides a strong adsorption. For example, poly-aspartic and poly-glutamic acids were tested for the functionalization of magnesium oxide nanoparticles. In this procedure, the capping ligands were sonicated with the nanoparticles until a complete dispersion was obtained. The stability of the dispersion was evaluated by the absorption spectra of the obtained mixture.
As a starting point for the optimization of the procedure, the magnesium oxide nanoparticles (200 mg) were dispersed in 25 mL of 1% capping agent with continuous stirring at different times. The concentration of nanoparticles and capping agent in the dispersion mixture together with the incubation temperature was optimized to increase the stability of the dispersed nanoparticles. The excess of capping agent was removed by centrifugation and washing with water. […]

dispersion of magnesium oxide nanomaterial with ligand (preliminary results, FIG. 7) | Compound | effect of ligand on magnesium oxide nanomaterial on sonication (magnesium oxide nanopowder sonicated in the presence of the ligand)
 | NCCP(=O)(O)O [2-aminoethylphosphonic acid] | dissolved the nanomaterial
good results | NCCCC(O)(P(=O)(O)O)P(=O)(O)O [alendronate] | 
